The values below come from US9487489B2, “Halogen-substituted pyrazole derivatives as pest-control agents” (BAYER CROPSCIENCE AKTIENGESELLSCHAFT, priority 2013, dated 2016).

The nature of series [1]: logP determination by HPLC on a reversed-phase column (C18), EEC Directive 79/831 Annex V.A8. It counts as physicochemical. The essentials: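 Per EEC 79/831 Annex V.A8, values derive from HPLC retention at 2.0 ml/min and 55° C on a 50*4.6 C18 column. The 10→95% acetonitrile gradient (0.1%/0.09% formic acid) lasted 4.25 min plus a 1.25 min hold; mass detection was by MSD.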

The test system of series [2] is adult cat fleas (Ctenocephalides felis). The series can be described thus: Ctenocephalides felis oral test (CTECFE). The class given is in vivo. Conditions: application rate 100 ppm in citrated cattle blood; after 2 days. The essentials:
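Mortality read at 2 days as percent of fleas killed. Compound predissolved in DMSO, diluted into citrated cattle blood and offered to roughly 20 unfed adult C. felis via parafilm membrane feeder.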

For series [3], the system named is larvae of the mustard beetle (Phaedon cochleariae). Nature of the series: Phaedon cochleariae spray test (PHAECO). The class given is in vivo. The conditions noted are these: Chinese cabbage leaf discs, after 7 days. The essentials: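 Kill of mustard beetle larvae is read as % mortality 7 days after spraying. Spray liquid: active compound in acetone plus dimethylformamide, brought up with water holding 1000 ppm alkylaryl polyglycol ether emulsifier and diluted further in emulsifier-water.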

Series [4] has as its system green peach aphid (Myzus persicae). Nature of the series: Myzus persicae spray test (MYZUPE). Conditions: Chinese cabbage leaf discs, after 6 days. It counts as in vivo. In short, it runs like this:
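Chinese cabbage leaf discs infested with all aphid stages sprayed with compound in acetone/DMF with alkylaryl polyglycol ether emulsifier in water. Efficacy (% aphids killed; 100% all dead, 0% none) scored after 6 days.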

Series [5] relates to cattle ticks (Boophilus microplus) Parkhurst strain, SP-resistant. Nature of the series: Boophilus microplus dip test (BOOPMI Dip). The conditions noted are these: application rate 100 ppm, assessed after 7 days. The class given is in vivo. In short, it runs like this:
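Adult engorged female SP-resistant Parkhurst ticks (8–10) were fully immersed in compound diluted in water from a DMSO solution, then kept in a climate-controlled room. After 7 days, fertile egg-laying was scored, with larval hatching checked at about 42 days; 100% efficacy means no fertile eggs.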

Series [6] concerns southern root-knot nematode (Meloidogyne incognita). Nature of the series: Meloidogyne incognita test (MELGIN). The class given is in vivo. The conditions noted are these: application rate 20 ppm; lettuce; after 14 days. The protocol: K. Meloidogyne incognita Test (MELGIN)
Solvent: 125.0 parts by weight of acetone
To prepare a suitable active compound preparation, 1 part by weight of active compound is mixed with the stated amount of solvent and the concentrate is diluted with water to the desired concentration.
Vessels are filled with sand, active compound solution, an egg/larvae suspension of the southern root-knot nematode (Meloidogyne incognita) and lettuce seeds. The lettuce seeds germinate and the plants develop. On the roots, galls are formed.
After 14 days, the nematicidal efficacy in % is determined by the formation of galls. 100% means that no galls have been found; 0% means that the number of galls on the treated plants corresponds to the untreated control.

For series [7], the system named is larvae of the red stomach worm (Haemonchus contortus). Nature of the series: Haemonchus contortus test (HAEMCO). The class given is in vivo. Conditions: application rate 20 ppm; after 5 days. The procedure: T8. Haemonchus contortus-test (HAEMCO)
Solvent: dimethyl sulphoxide
To produce a suitable preparation of active compound, 10 mg of active compound are mixed with 0.5 ml of dimethyl sulphoxide, and the concentrate is diluted with “Ringer solution” to the desired concentration.
Vessels containing the active compound preparation of the desired concentration are populated with about 40 larvae of the red stomach worm (Haemonchus contortus).
After 5 days, the kill in % is determined 100% means that all of the larvae have been killed; 0% means that none of the larvae have been killed.

[8] abbreviates: HPLC on reversed-phase column (C18), acetonitrile/water with formic acid, EEC Directive 79/831 Annex V.A8.
Where [9] appears, read: HPLC, reversed-phase C18, acetonitrile (0.1% formic acid)/water (0.09% formic acid) gradient.

What is called logP is the decadic logarithm of the partition coefficient of the neutral form, usually between octanol and water. A higher logP goes with higher lipophilicity. `Cn1nc(C(F)(F)C(F)(F)F)c(C(F)(F)F)c1-n1cc(-c2ccc([N+](=O)[O-])c(C(=O)NC3CC3)c2)cn1` [Ic-66] displayed a log partition coefficient (logP) in series [1] (setting [8]) of 3.53. In addition, the “efficacy (kill in %)” value in series [2] was 100%. Moreover, the efficacy in % in series [3] (application rate 100 g/ha) is given as 100%; in series [4] (application rate 100 g/ha), 90%. Moreover, in series [5], the “efficacy (laying of fertile eggs)” value is 100%.
In turn, `Cn1nc(C(F)(F)C(F)(F)F)c(C(F)(F)F)c1-n1ccc(-c2ccc(Cl)c(C(=O)NC3(C#N)CC3)c2)c1` [Ia-1] came in with a logP in series [1] (setting [9]) of 3.99. Besides, in series [2], the “efficacy (kill in %)” value worked out at 100%. In series [3] (application rate 100 g/ha), this compound yielded an efficacy in % of 100%. Further, the “efficacy (laying of fertile eggs)” value in series [5] is 100%.
The compound `Cn1nc(C(F)(F)C(F)(F)F)c(C(F)(F)F)c1-n1cc(-c2ccc(Cl)c(C(=O)NC3CC3F)c2)cn1` (stereo not drawn) [Ic-81] gave a logP in series [1] (setting [8]) of 3.8. For the same compound, the “efficacy (kill in %)” value in series [2] was 100%. The efficacy in % in series [3] (application rate 100 g/ha) came out at 100%; in series [4] (application rate 100 g/ha) it was 90%. In addition, the “efficacy (laying of fertile eggs)” value in series [5] stood at 100%.
What is called chromatographic logP is a lipophilicity value derived from retention on a column. A high value points to higher lipophilicity. Compound `Cn1nc(C(F)(F)C(F)(F)F)c(C(F)(F)F)c1-n1cc(-c2ccc(Cl)c(C(=O)NC3CC3)c2)cn1` [Ic-1, 2-Chloro-N-cyclopropyl-5-[2′-methyl-5′-(pentafluoroethyl)-4′-(trifluoromethyl)-2′H-1,3′-bipyrazol-4-yl]benzamide] gave a chromatographic logP in series [1] of 3.79. The “efficacy (kill in %)” value worked out at 100% in series [2] and 80% in series [7]. The efficacy in % in series [3] (application rate 500 g/ha) came out at 100%; in series [4] (application rate 500 g/ha), 90%. The “nematicidal efficacy in % (formation of galls)” value in series [6] was found to be 90%. In series [5], the “efficacy (laying of fertile eggs)” value was 100%.
Consider `Cn1nc(C(F)(F)C(F)(F)F)c(C(F)(F)F)c1-n1cc(-c2cc(F)c(Cl)c(C(=O)NC3CC3)c2)cn1` [Ic-24], for which the lipophilicity (logP) in series [1] (setting [8]) was found to be 3.90. For the same compound, in series [2], the “efficacy (kill in %)” value worked out at 100%. Further, the values for the efficacy in % in series [3] (application rate 500 g/ha) and in series [4] (application rate 500 g/ha) were 100% and 90%, respectively. Besides, the “efficacy (laying of fertile eggs)” value in series [5] turned out to be 100%.
Take `Cn1nc(C(F)(F)C(F)(F)F)c(C(F)(F)F)c1-n1cc(-c2ccc(Cl)c(C(=O)NCC(F)F)c2)cn1` [Ic-78]: the logP in series [1] (setting [8]) turned out to be 3.86. In series [2], the “efficacy (kill in %)” value was found to be 100%. Besides, the efficacy in % in series [3] (application rate 100 g/ha) was determined as 100%; in series [4] (application rate 100 g/ha) it was 90%. The “efficacy (laying of fertile eggs)” value in series [5] turned out to be 100%.
Compound `Cn1nc(C(F)(F)C(F)(F)F)c(C(F)(F)F)c1-n1cc(-c2ccc(F)c(C(=O)NC3CC3)c2)cn1` [Ic-37] returned a logP in series [1] (setting [8]) of 3.79. Besides, the “efficacy (kill in %)” value in series [2] came to 100%. Besides, the efficacy in % in series [3] (application rate 100 g/ha) is 100%. For the same compound, the “efficacy (laying of fertile eggs)” value in series [5] was 100%.
Compound `Cn1nc(C(F)(F)C(F)(F)F)c(C(F)(F)F)c1-n1cc(-c2ccc(Cl)c(C(=O)NCC(F)(F)F)c2)cn1` [Ic-23] gave a logP in series [1] (setting [8]) of 4.17. Also, the “efficacy (kill in %)” value in series [2] is given as 100%. The compound further yielded an efficacy in % in series [3] (application rate 100 g/ha) of 100%. For the same compound, in series [5], the “efficacy (laying of fertile eggs)” value is 100%.
For `Cn1nc(C(F)(F)C(F)(F)F)c(C(F)(F)F)c1-n1cc(-c2ccc(F)c(C(=O)NC3(C#N)CC3)c2)cn1` [Ic-36], in series [1] (setting [8]), the logP stood at 3.69. Moreover, in series [2], the “efficacy (kill in %)” value is reported as 100%. The efficacy in % in series [3] (application rate 100 g/ha) is given as 100%; in series [4] (application rate 100 g/ha) it was 90%. In addition, the “efficacy (laying of fertile eggs)” value in series [5] was 100%.
For the compound `Cn1nc(C(F)(F)C(F)(F)F)c(C(F)(F)F)c1-n1cnc(-c2ccc(Cl)c(C(=O)NC3CC3)c2)c1` [Ib-3], in series [1] (setting [9]), the log partition coefficient (logP) is reported as 3.43. The “efficacy (kill in %)” value in series [2] amounted to 100%. In addition, in series [3] (application rate 100 g/ha), the efficacy in % was 100%. Moreover, the “efficacy (laying of fertile eggs)” value in series [5] amounted to 100%.
As to `CN(C(=O)c1cc(-c2cnn(-c3c(C(F)(F)F)c(C(F)(F)C(F)(F)F)nn3C)c2)ccc1Cl)C1(C#N)CC1` [Ic-96], the log partition coefficient (logP) in series [1] (setting [8]) was found to be 4.1. Further, the “efficacy (kill in %)” value in series [2] is 100%. For the same compound, the efficacy in % in series [3] (application rate 100 g/ha) and in series [4] (application rate 100 g/ha) was 100% throughout. Also, the “efficacy (laying of fertile eggs)” value in series [5] was determined as 100%.
In turn, `CCn1nc(C(F)(F)C(F)(F)F)c(C(F)(F)F)c1-n1cc(-c2ccc(Cl)c(C(=O)NC3CC3)c2)cn1` [Ic-16] showed a log partition coefficient (logP) in series [1] (setting [8]) of 4.14. Further, the results for the “efficacy (kill in %)” value in series [2] and in series [7] were 100% and 80%, respectively. This compound gave an efficacy in % in series [3] (application rate 100 g/ha) of 100%. Also, the “efficacy (laying of fertile eggs)” value in series [5] amounted to 100%.
Turning to `Cn1nc(C(F)(F)C(F)(F)F)c(C(F)(F)F)c1-n1cc(-c2ccc(Cl)c(C(=O)NC3(C#N)CC3)c2)cn1` [Ic-2], the logP in series [1] (setting [8]) came out at 3.72. Also, the “efficacy (kill in %)” value in series [2] amounted to 100%. The efficacy in % in series [3] (application rate 100 g/ha) and in series [4] (application rate 100 g/ha) was 100% in each case. Besides, the “efficacy (laying of fertile eggs)” value in series [5] turned out to be 100%.
Compound `Cn1nc(C(F)(F)C(F)(F)F)c(C(F)(F)F)c1-n1cc(-c2cc(F)c(Cl)c(C(=O)NC3(C#N)CC3)c2)cn1` [Ic-27] came in with a logP in series [1] (setting [8]) of 3.87. Besides, the “efficacy (kill in %)” value in series [2] came out at 100%. For the same compound, the efficacy in % in series [3] (application rate 500 g/ha) is listed as 100%; in series [4] (application rate 500 g/ha), 90%. Besides, the “efficacy (laying of fertile eggs)” value in series [5] worked out at 100%.
Consider `Cn1nc(C(F)(F)C(F)(F)F)c(C(F)(F)F)c1-n1cc(-c2ccc(Br)c(C(=O)NC3(C#N)CC3)c2)cn1` [Ic-34], for which, in series [1] (setting [8]), the logP amounted to 3.74. The “efficacy (kill in %)” value in series [2] is 100%. Further, the efficacy in % was 100% in series [3] (application rate 100 g/ha) and 90% in series [4] (application rate 100 g/ha). Also, the “efficacy (laying of fertile eggs)” value in series [5] is 100%.
As to `Cc1ncc(-c2cnn(-c3c(C(F)(F)F)c(C(F)(F)C(F)(F)F)nn3C)c2)cc1C(=O)NC1CC1` [Ic-84], in series [2], the “efficacy (kill in %)” value came to 100%. Further, the efficacy in % in series [3] (application rate 500 g/ha) and in series [4] (application rate 500 g/ha) was 100% each time. Besides, in series [5], the “efficacy (laying of fertile eggs)” value worked out at 100%.
Compound `Cn1nc(C(F)(F)C(F)(F)F)c(C(F)(F)F)c1-n1cc(-c2ccc(Cl)c(C(=O)NC3(C(N)=S)CC3)c2)cn1` [Ic-11] came in with a lipophilicity (logP) in series [1] (setting [8]) of 3.59. The “efficacy (kill in %)” value in series [2] is listed as 100%. Further, the efficacy in % in series [3] (application rate 100 g/ha) and in series [4] (application rate 100 g/ha) was 100% throughout. For the same compound, in series [5], the “efficacy (laying of fertile eggs)” value came to 100%.
Take `Cn1nc(C(F)(F)C(F)(F)F)c(C(F)(F)F)c1-n1cc(-c2cc(Cl)c(Cl)c(C(=O)NC3CC3)c2)cn1` [Ic-94]: the “efficacy (kill in %)” value in series [2] came out at 100%. The efficacy in % in series [3] (application rate 500 g/ha) and in series [4] (application rate 500 g/ha) was 100% throughout. Moreover, the “efficacy (laying of fertile eggs)” value in series [5] is given as 100%.
In turn, `Cn1nc(C(F)(F)C(F)(F)F)c(C(F)(F)F)c1-n1ccc(-c2ccc(Cl)c(C(=O)NC3CC3)c2)c1` [Ia-2] registered a logP in series [1] (setting [9]) of 4.08. For the same compound, the “efficacy (kill in %)” value in series [2] worked out at 100%. The same compound returned an efficacy in % in series [3] (application rate 100 g/ha) of 100%. The “efficacy (laying of fertile eggs)” value in series [5] stood at 100%.
